Experimental data: PMC5011342, “A high throughput drug screening assay to identify compounds that promote oligodendrocyte differentiation using acutely dissociated and purified oligodendrocyte precursor cells” (BMC Research Notes, 2016)
Read-outs that look alike come from different tables or passages of the source.

How the values were obtained:
[1] = system: acutely dissociated and purified rat OPCs; test: Acute OL differentiation assay (MBP expression/cell, immunofluorescent image quantification); format: cell-based; conditions: sheet "All OLga data"; for activation at 2 µM / activation at 10 µM / activation at 0.08 µM / activation at 0.4 µM: Rattus norvegicus; for activation at 0.08 µM: test compound at 0.08 uM, read-out: 0.08 uM (% Quet)
Summary of the method: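 This acute differentiation assay used purified rat OPCs from postnatal day 6–7 pups, seeded into PDL/laminin-coated 96-well plates in differentiation medium lacking PDGF and FGF. Compounds were applied in quadruplicate after a 1–2 h preincubation at 37 °C, 10 % CO2, with 0.1 % DMSO negative and 40 ng/ml T3 positive controls in eight wells. After fixation on DIV4, anti-MBP immunofluorescence images yielded MBP expression/cell.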

expanded OPCs = test: cells; conditions: for viability at 0.1 µM / viability at 1 µM / viability at 10 µM: Rattus norvegicus, 72 h
Summary of the method: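 Toxicity screen: compounds added at 0.1, 1 and 10 µM to PDGF-AA-expanded OPCs in 96-well plates, 3-day incubation at 37 °C, 10% CO2, then alamarBlue 1:10 for 4 h with fluorescence readout. Results set screening doses of 10/2, 2/0.4 or 0.4/0.08 µM.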

[2] = 2 uM test compound, relative to quetiapine, read-out: OL differentiation, 2 uM (% Quet)
[3] = 10 uM test compound, relative to quetiapine, read-out: OL differentiation, 10 uM (% Quet)
[4] = read-out: 0.1 µM (% DMSO), alamarBlue viability of expanded OPCs, compound at 0.1 µM, sheet All Tox data
[5] = read-out: 1 µM (% DMSO), alamarBlue viability of expanded OPCs, compound at 1 µM, sheet All Tox data
[6] = read-out: 10 µM (% DMSO), alamarBlue viability of expanded OPCs, compound at 10 µM, sheet All Tox data
[7] = NCC library screen, relative to quetiapine
[8] = test compound at 0.4 uM, NCC library screen, relative to quetiapine, read-out: 0.4 uM (% Quet)
[9] = alamarBlue viability of expanded OPCs, compound at 0.1 µM, relative to DMSO control
[10] = alamarBlue viability of expanded OPCs, compound at 1 µM, relative to DMSO control
[11] = alamarBlue viability of expanded OPCs, compound at 10 µM, relative to DMSO control
[12] = test compound at 2 uM, NCC library screen, relative to quetiapine, read-out: 2 uM (% Quet)
[13] = test compound at 10 uM, NCC library screen, relative to quetiapine, read-out: 10 uM (% Quet)
[14] = 0.4 uM test compound, relative to quetiapine, read-out: OL differentiation, 0.4 uM (% Quet)
[15] = read-out: 0.1 µM (% DMSO), alamarBlue viability, NCC library compound at 0.1 µM, sheet "All Tox data"
[16] = read-out: 1 µM (% DMSO), alamarBlue viability, NCC library compound at 1 µM, sheet "All Tox data"
[17] = read-out: 10 µM (% DMSO), alamarBlue viability, NCC library compound at 10 µM, sheet "All Tox data"
[18] = test compound at 2 uM, MBP expression relative to quetiapine, NCC library screen, read-out: 2 uM (% Quet)
[19] = test compound at 10 uM, MBP expression relative to quetiapine, NCC library screen, read-out: 10 uM (% Quet)

| Compound | activation at 2 µM [1, 2] | activation at 10 µM [1, 3] | viability at 0.1 µM (expanded OPCs; [4]) | viability at 1 µM (expanded OPCs; [5]) | viability at 10 µM (expanded OPCs; [6]) | further results |
| --- | --- | --- | --- | --- | --- | --- |
| c1cncc([C@@H]2CCCN2)c1 [Nornicotine] | 18.1% | 10.4% | 86% | 101% | 98.4% | – |
| CNCCC=C1c2ccccc2CCc2ccccc21 [Nortriptyline] | – | – | – | – | – | activation at 0.08 µM [1, 7]: 2.3%; activation at 0.4 µM [1, 8]: -28.1%; 0.1 µM (% DMSO) (expanded OPCs; [9]): 66.6 % DMSO; 1 µM (% DMSO) (expanded OPCs; [10]): 28.2 % DMSO; 10 µM (% DMSO) (expanded OPCs; [11]): 13.8 % DMSO |
| CC1COc2c(N3CCN(C)CC3)c(F)cc3c(=O)c(C(=O)O)cn1c23 (stereo not drawn) [Ofloxacin] | -4.3% | 4.9% | 95.3% | 91.5% | 99.5% | activation at 2 µM [1, 12]: 3.8%; activation at 10 µM [1, 13]: -3.8%; 0.1 µM (% DMSO) (expanded OPCs; [9]): 93.4 % DMSO; 1 µM (% DMSO) (expanded OPCs; [10]): 91.6 % DMSO; 10 µM (% DMSO) (expanded OPCs; [11]): 89.4 % DMSO |
| Cc1cc2c(s1)Nc1ccccc1N=C2N1CCN(C)CC1 [Olanzapine] | -9.8% | – | 90.8% | 60.6% | 30.2% | activation at 0.4 µM [1, 14]: -3% |
| CC[C@@H]1C=CC=CC[C@H](C)[C@@H](O)[C@@H](C)C(=O)[C@H](C)[C@@H](O)[C@H](C)C(=O)[C@H](C)[C@@H](O)[C@H](C)C=CC(=O)O[C@H]2[C@@H](C)[C@@H](CC1)O[C@@]1(CC[C@@H](C)[C@@H](C[C@H](C)O)O1)[C@@H]2C [Oligomycin C] | -33.8% | -128% | 86.9% | 87% | 68.4% | – |
| CCCc1nc(C(C)(C)O)c(C(=O)O)n1Cc1ccc(-c2ccccc2-c2nnn[nH]2)cc1 [Olmesartan] | -15.6% | -11.9% | 91.4% | 87.4% | 93.9% | – |
| CN(C)CC/C=C1/c2ccccc2COc2ccc(CC(=O)O)cc21 [Olopatadine] | – | – | – | – | – | activation at 2 µM [1, 12]: -29.3%; activation at 10 µM [1, 13]: -29%; viability at 0.1 µM (expanded OPCs; [15]): 88.7%; viability at 1 µM (expanded OPCs; [16]): 89.3%; viability at 10 µM (expanded OPCs; [17]): 77.6% |
| COc1ccc2[nH]c([S+]([O-])Cc3ncc(C)c(OC)c3C)nc2c1 (stereo not drawn) [Omeprazole] | – | – | – | – | – | activation at 2 µM [1, 12]: -5.2%; activation at 10 µM [1, 13]: 5.2%; viability at 0.1 µM (expanded OPCs; [15]): 84.3%; viability at 1 µM (expanded OPCs; [16]): 88.4%; viability at 10 µM (expanded OPCs; [17]): 85.8% |
| Cc1nccn1CC1CCc2c(c3ccccc3n2C)C1=O (stereo not drawn) [Ondansetron] | 4.2% | -7.7% | 92.9% | 92.2% | 102% | activation at 2 µM [1, 18]: 3%; activation at 10 µM [1, 19]: 3.5%; 0.1 µM (% DMSO) (expanded OPCs; [9]): 95.7 % DMSO; 1 µM (% DMSO) (expanded OPCs; [10]): 92.7 % DMSO; 10 µM (% DMSO) (expanded OPCs; [11]): 90.9 % DMSO |
| CCCCCCCCCCC[C@@H](C[C@@H]1OC(=O)[C@H]1CCCCCC)OC(=O)[C@H](CC(C)C)NC=O [Orlistat] | -43.8% | – | 80.3% | 80.1% | 12.5% | activation at 0.4 µM [1, 14]: 4.3% |
| COc1cc(C)c(Cc2cnc(N)nc2N)cc1OC [Ormetoprim] | -23.4% | -8.2% | 101% | 91% | 95.4% | – |
| Cc1ncc([N+](=O)[O-])n1CC(O)CCl (stereo not drawn) [Ornidazole] | 4.7% | 13% | – | – | – | viability at 0.1 µM (expanded OPCs; [15]): 106%; viability at 1 µM (expanded OPCs; [16]): 91.3%; viability at 10 µM (expanded OPCs; [17]): 82.2% |
| CCN(CC)CC1CCCCN1CC(=O)N1c2ccccc2C(=O)Nc2cccnc21 (stereo not drawn) [Otenzepad] | – | – | – | – | – | activation at 2 µM [1, 12]: 11.2%; activation at 10 µM [1, 13]: 13.5%; viability at 0.1 µM (expanded OPCs; [15]): 91.2%; viability at 1 µM (expanded OPCs; [16]): 81.4%; viability at 10 µM (expanded OPCs; [17]): 75.7% |
| Cc1onc(-c2ccccc2)c1C(=O)N[C@@H]1C(=O)N2[C@@H]1SC(C)(C)[C@@H]2C(=O)O [Oxacillin] | – | – | – | – | – | activation at 2 µM [1, 18]: -14.9%; activation at 10 µM [1, 19]: -26.1%; 0.1 µM (% DMSO) (expanded OPCs; [9]): 96.9 % DMSO; 1 µM (% DMSO) (expanded OPCs; [10]): 96.8 % DMSO; 10 µM (% DMSO) (expanded OPCs; [11]): 93.4 % DMSO |
| O=C(O)CCc1nc(-c2ccccc2)c(-c2ccccc2)o1 [Oxaprozin] | -15.3% | -15% | 91.8% | 86.6% | 78% | – |
| NC(=O)N1c2ccccc2CC(=O)c2ccccc21 [Oxcarbazepine] | -28.9% | -57.8% | 102% | 92% | 73.5% | – |
| Clc1ccc(CO/N=C(\Cn2ccnc2)c2ccc(Cl)cc2Cl)c(Cl)c1 [Oxiconazole] | – | – | 131% | 195% | 11.7% | activation at 0.4 µM [1, 14]: 96.5% |
| C[C@]12C/C(=C/O)C(=O)C[C@@H]1CC[C@@H]1[C@@H]2CC[C@@]2(C)[C@H]1CC[C@]2(C)O [Oxymetholone] | -31.7% | – | 82.4% | 79.2% | 48.9% | activation at 0.4 µM [1, 14]: -20% |
| CN1CC[C@]23c4c5ccc(O)c4O[C@H]2c2[nH]c4ccccc4c2C[C@@]3(O)[C@H]1C5 [Oxymorphindole] | – | – | – | – | – | activation at 0.08 µM [1, 7]: -8.6%; activation at 0.4 µM [1, 8]: -51.8%; viability at 0.1 µM (expanded OPCs; [15]): 85.7%; viability at 1 µM (expanded OPCs; [16]): 54.1%; viability at 10 µM (expanded OPCs; [17]): 12% |
| CC[N+](C)(CC)CCOC(=O)C(O)(c1ccccc1)C1CCCCC1 (stereo not drawn) [Oxyphenonium] | – | – | – | – | – | activation at 2 µM [1, 12]: -6.1%; activation at 10 µM [1, 13]: 36.4%; viability at 0.1 µM (expanded OPCs; [15]): 92.5%; viability at 1 µM (expanded OPCs; [16]): 97.2%; viability at 10 µM (expanded OPCs; [17]): 94.9% |
| CN(C)[C@@H]1C(O)=C(C(N)=O)C(=O)[C@@]2(O)C(O)=C3C(=O)c4c(O)cccc4[C@@](C)(O)[C@H]3[C@H](O)[C@@H]12 [Oxytetracycline] | – | – | – | – | – | activation at 2 µM [1, 18]: -42.7%; activation at 10 µM [1, 19]: -36.7%; 0.1 µM (% DMSO) (expanded OPCs; [9]): 98.0 % DMSO; 1 µM (% DMSO) (expanded OPCs; [10]): 97.7 % DMSO; 10 µM (% DMSO) (expanded OPCs; [11]): 93.6 % DMSO |
| O=C(O)/C=C/c1ccc(Cn2ccnc2)cc1 [Ozagrel] | -6.1% | -20.6% | 82.8% | 85.9% | 92.2% | – |
| Cc1sc(N)c(C(=O)c2cccc(C(F)(F)F)c2)c1C [PD 81723] | – | – | – | – | – | 0.4 uM (% Quet) ([1]; test compound at 0.4 uM, NCC library screen, relative to quetiapine): 4.2 % Quet; 2 uM (% Quet) ([1]; test compound at 2 uM, NCC library screen, relative to quetiapine): -21.8 % Quet; 0.1 µM (% DMSO) (expanded OPCs; alamarBlue viability, NCC library compound at 0.1 µM, sheet "All Tox data"): 90.2 % DMSO; 1 µM (% DMSO) (expanded OPCs; alamarBlue viability, NCC library compound at 1 µM, sheet "All Tox data"): 90.8 % DMSO; 10 µM (% DMSO) (expanded OPCs; alamarBlue viability, NCC library compound at 10 µM, sheet "All Tox data"): 57.3 % DMSO |
| O=C1c2cccc3c2[C@H](CCC3)CN1[C@@H]1CN2CCC1CC2 [Palonosetron] | – | – | – | – | – | activation at 2 µM [1, 12]: 13.3%; activation at 10 µM [1, 13]: 29.7%; viability at 0.1 µM (expanded OPCs; [15]): 93%; viability at 1 µM (expanded OPCs; [16]): 92.4%; viability at 10 µM (expanded OPCs; [17]): 72.1% |
| CC(=O)O[C@H]1C[C@@H]2CC[C@@H]3[C@H](CC[C@@]4(C)[C@H]3C[C@H]([N+]3(C)CCCCC3)[C@@H]4OC(C)=O)[C@@]2(C)C[C@@H]1[N+]1(C)CCCCC1 [Pancuronium] | 14.7% | 8.2% | 83.3% | 83.2% | 88% | – |
| COc1ccnc(C[S+]([O-])c2nc3ccc(OC(F)F)cc3[nH]2)c1OC (stereo not drawn) [Pantoprazole] | 8.8% | -5.3% | 94.1% | 91.1% | 95.2% | – |
| CCC(=O)NS(=O)(=O)c1ccc(-c2c(-c3ccccc3)noc2C)cc1 [Parecoxib] | – | – | – | – | – | activation at 2 µM [1, 12]: -1.5%; activation at 10 µM [1, 13]: -3%; viability at 0.1 µM (expanded OPCs; [15]): 90.9%; viability at 1 µM (expanded OPCs; [16]): 87.2%; viability at 10 µM (expanded OPCs; [17]): 95.5% |
